# Results published in PubChem BioAssay AID651872 (NMMLSC, 2012).
# Biological target: Beta-2 adrenergic receptor (Homo sapiens) (UniProt P07550)
# Assay: ADRB2 activation measured by internalization – cell-based, FAP fluorogen, flow cytometry, powder set 4, dose response (AID 651872)
# Conditions: AM2.2-beta2AR cells, 90 min
# Sequence of Beta-2 adrenergic receptor (Homo sapiens) (P07550 whole entry, looked up): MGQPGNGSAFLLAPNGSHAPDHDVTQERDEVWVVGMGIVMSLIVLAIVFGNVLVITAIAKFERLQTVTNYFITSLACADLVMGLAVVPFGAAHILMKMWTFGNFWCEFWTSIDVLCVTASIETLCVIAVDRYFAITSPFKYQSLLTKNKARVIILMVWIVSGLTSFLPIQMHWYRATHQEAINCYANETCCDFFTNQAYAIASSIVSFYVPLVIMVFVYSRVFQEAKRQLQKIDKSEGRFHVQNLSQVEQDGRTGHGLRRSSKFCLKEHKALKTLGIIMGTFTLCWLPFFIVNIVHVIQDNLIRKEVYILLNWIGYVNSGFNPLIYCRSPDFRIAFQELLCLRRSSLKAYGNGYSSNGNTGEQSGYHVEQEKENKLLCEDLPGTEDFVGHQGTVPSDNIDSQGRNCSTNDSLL
row,EC50 [nM],SMILES
1,208,O=C(CN(Cc1ccccc1)S(=O)(=O)c1ccc(Cl)cc1)N1CCN(c2ccccn2)CC1
2,26.2,O=C(C1CCC(=O)N1S(=O)(=O)c1ccccc1)N1CCN(c2ccccn2)CC1 (stereo unspecified)

# Second part, the molecule before the results:
row,SMILES,EC50 [nM]
1,Cc1ccc(S(=O)(=O)N(C)CC(=O)N2CCN(c3ccccn3)CC2)cc1,1.6
2,CC(=O)Nc1ccc(S(=O)(=O)N2CCCCC2c2cccnc2)cc1 (stereo unspecified),10.5
3,COc1ccccc1N1CCN(C(=O)CN(C)S(=O)(=O)c2ccc(C)cc2)CC1,676
4,CN(CC(=O)N1CCN(c2cccc(C(F)(F)F)c2)CC1)S(=O)(=O)c1ccc(F)cc1,9640
